Reference: BindingDB's records for doi:10.1007/BF02244985 (Mayo Clinic, 1994)
pKi: −log10 of the molar value. Structures can show the parent of a compound that is named as a salt.

What was measured:
[1] = target: T1, 5-hydroxytryptamine receptor 1A (Homo sapiens, UniProt P08908)
T1 sequence (P08908 whole entry): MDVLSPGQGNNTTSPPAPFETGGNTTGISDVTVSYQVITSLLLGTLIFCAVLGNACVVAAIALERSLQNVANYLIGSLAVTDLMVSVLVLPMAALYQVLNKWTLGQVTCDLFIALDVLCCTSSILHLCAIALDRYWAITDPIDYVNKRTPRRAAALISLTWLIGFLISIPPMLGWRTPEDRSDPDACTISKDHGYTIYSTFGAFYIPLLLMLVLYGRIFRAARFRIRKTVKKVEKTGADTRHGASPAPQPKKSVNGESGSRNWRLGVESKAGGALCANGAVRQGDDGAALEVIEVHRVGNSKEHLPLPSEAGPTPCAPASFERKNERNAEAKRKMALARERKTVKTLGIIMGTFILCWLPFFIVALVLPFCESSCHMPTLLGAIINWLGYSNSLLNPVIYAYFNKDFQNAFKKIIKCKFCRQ

[2] = target: D(2) dopamine receptor (Homo sapiens, UniProt P14416)
Chain of D(2) dopamine receptor (P14416 whole entry): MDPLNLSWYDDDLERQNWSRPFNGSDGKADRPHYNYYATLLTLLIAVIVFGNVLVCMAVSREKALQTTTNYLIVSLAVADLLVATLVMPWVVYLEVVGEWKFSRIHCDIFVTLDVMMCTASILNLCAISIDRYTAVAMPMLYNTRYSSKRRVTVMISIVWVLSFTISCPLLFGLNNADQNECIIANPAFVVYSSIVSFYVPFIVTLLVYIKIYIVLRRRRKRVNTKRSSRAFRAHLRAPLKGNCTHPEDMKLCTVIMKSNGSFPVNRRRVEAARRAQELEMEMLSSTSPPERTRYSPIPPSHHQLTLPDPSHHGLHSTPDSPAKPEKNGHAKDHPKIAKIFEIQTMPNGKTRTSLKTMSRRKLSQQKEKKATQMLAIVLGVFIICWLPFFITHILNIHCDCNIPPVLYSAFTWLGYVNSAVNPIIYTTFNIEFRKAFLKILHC

[3] = target: T2, Alpha-1A adrenergic receptor (Homo sapiens, UniProt P35348)
T2 sequence (P35348 whole entry): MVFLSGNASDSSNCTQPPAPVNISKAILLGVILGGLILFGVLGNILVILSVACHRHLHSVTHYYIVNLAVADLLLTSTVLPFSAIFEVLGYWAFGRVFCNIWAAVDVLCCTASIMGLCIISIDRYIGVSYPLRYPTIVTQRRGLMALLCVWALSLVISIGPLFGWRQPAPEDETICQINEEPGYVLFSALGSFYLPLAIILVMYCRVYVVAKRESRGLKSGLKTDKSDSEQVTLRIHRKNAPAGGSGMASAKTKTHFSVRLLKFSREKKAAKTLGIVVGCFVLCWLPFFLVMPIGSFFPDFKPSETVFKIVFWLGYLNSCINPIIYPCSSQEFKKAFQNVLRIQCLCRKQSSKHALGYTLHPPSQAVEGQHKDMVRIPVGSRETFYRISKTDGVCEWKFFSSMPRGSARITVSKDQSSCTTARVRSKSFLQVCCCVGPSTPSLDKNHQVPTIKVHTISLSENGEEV

[4] = target: T3, Muscarinic acetylcholine receptor M2 (Homo sapiens, UniProt P08172)
T3 sequence (P08172 whole entry): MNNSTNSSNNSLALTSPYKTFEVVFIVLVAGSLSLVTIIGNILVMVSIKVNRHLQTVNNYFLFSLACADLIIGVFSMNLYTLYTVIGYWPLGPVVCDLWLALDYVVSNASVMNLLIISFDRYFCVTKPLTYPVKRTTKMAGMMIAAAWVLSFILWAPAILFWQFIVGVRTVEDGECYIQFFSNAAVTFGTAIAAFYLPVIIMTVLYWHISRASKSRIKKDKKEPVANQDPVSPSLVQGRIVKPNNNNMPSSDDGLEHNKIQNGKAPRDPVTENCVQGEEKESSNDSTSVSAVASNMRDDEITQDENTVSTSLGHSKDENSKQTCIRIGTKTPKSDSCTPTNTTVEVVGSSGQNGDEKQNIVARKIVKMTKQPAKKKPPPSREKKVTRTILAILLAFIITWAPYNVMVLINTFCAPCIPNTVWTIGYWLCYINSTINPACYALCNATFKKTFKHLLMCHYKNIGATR

[5] = target: T4, Alpha-2A adrenergic receptor (Homo sapiens, UniProt P08913)
T4 sequence (P08913 whole entry): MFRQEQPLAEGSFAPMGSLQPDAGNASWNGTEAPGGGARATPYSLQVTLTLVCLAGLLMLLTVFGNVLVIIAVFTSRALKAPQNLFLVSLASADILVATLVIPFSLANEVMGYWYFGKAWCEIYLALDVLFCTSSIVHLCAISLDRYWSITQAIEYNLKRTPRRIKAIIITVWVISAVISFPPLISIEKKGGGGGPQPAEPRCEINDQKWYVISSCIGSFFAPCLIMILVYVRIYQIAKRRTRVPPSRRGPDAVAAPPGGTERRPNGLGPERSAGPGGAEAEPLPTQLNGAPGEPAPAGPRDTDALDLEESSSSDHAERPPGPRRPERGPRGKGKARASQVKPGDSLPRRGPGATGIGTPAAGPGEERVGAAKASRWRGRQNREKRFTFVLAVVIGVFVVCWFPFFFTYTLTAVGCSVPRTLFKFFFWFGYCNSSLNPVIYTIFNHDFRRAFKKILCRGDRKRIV

In the case of `CCc1nn(CCCN2CCN(c3cccc(Cl)c3)CC2)c(=O)n1CCOc1ccccc1` [2-{3-[4-(3-chlorophenyl)piperazin-1-yl]propyl}-5-ethyl-4-(2-phenoxyethyl)-2,4-dihydro-3H-1,2,4-triazol-3-one], the pKi [1] was 7.10, the pKi [2] was 6.04 and the pKi [3] was 7.32.
For `CNCCC(Oc1ccccc1C)c1ccccc1` (stereo not given) [Methyl-(3-phenyl-3-o-tolyloxy-propyl)-amine(tomoxetine)], the pKi [3] was 5.42.
`COc1ccc(OC[C@H]2CN(C)CC[C@@H]2c2ccccc2)cc1` [(3R,4S)-3-(4-Methoxy-phenoxymethyl)-1-methyl-4-phenyl-piperidine] gave a pKi [1] of 5.64, a pKi [2] of 6.23 and a pKi [4] of 6.74. The pKi [5] was 5.71 and the pKi [3] was 6.19.
`COc1ccc(C(CN(C)C)C2(O)CCCCC2)cc1` (stereo not given) [NSC_62923] was tested, and the pKi [1] was < 5.00, the pKi [2] was < 5.00 and the pKi [4] was < 5.00. For the same molecule, the pKi [5] was < 5.00 and the pKi [3] was < 5.00.
`CCc1nn(CCCN2CCN(c3cccc(Cl)c3)CC2)c(=O)n1CC` [NSC_40589] was tested, and the pKi [1] was 7.07, the pKi [2] was 5.64 and the pKi [4] was < 5.00. It also gave a pKi [5] of 6.24 and a pKi [3] of 7.42.
For `CN(C)CCCN1c2ccccc2CCc2ccccc21`, the pKi [1] was 5.24, the pKi [2] was 6.21 and the pKi [4] was 7.34. For the same molecule, the pKi [5] was 5.51 and the pKi [3] was 7.49.
For `Fc1ccc([C@@H]2CCNC[C@H]2COc2ccc3c(c2)OCO3)cc1` [PAROXETINE], the pKi [1] was < 5.00 and the pKi [2] was < 5.00.
With `NCC[C@H](Oc1ccc(C(F)(F)F)cc1)c1ccccc1` [NORFLUOXETINE] the pKi [1] was < 5.00, the pKi [2] was < 5.00 and the pKi [4] was 6.09. For the same molecule, the pKi [5] was < 5.00 and the pKi [3] was 5.41.
Work on `CN(C)CCC=C1c2ccccc2CCc2ccccc21` yielded a pKi [1] of 6.35, a pKi [2] of 5.84 and a pKi [5] of 6.16. It also gave a pKi [3] of 7.62.
In the case of `N[C@H]1CC[C@@H](c2ccc(Cl)c(Cl)c2)c2ccccc21`, the pKi [1] was < 5.00, the pKi [2] was < 5.00 and the pKi [4] was 5.84. For the same molecule, the pKi [5] was 5.11 and the pKi [3] was 5.92.
`CN(C)Cc1nnc2n1-c1ccc(Cl)cc1C(c1ccccc1)=NC2` [NSC_37632] was tested, and the pKi [1] was < 5.00, the pKi [2] was < 5.00 and the pKi [4] was < 5.00. The pKi [5] was < 5.00 and the pKi [3] was < 5.00.
In the case of `CNCCC=C1c2ccccc2CCc2ccccc21` [NORTRIPTYLINE], the pKi [1] was 6.53, the pKi [2] was 5.59 and the pKi [4] was 7.43. The pKi [3] was 7.26.
Work on `CN(CCCN1c2ccccc2CCc2ccccc21)CC(=O)c1ccc(Cl)cc1` [CAS_23047-25-8] yielded a pKi [1] of 5.34, a pKi [2] of 5.70 and a pKi [4] of 7.17. For the same molecule, the pKi [5] was 5.57 and the pKi [3] was 7.00.
`CN(C)CC/C=C1/c2ccccc2COc2ccccc21` gave a pKi [2] of 6.44.
With `CN[C@@H]1CC[C@@H](c2ccc(Cl)c(Cl)c2)c2ccccc21` [[4-(3,4-Dichloro-phenyl)-1,2,3,4-tetrahydro-naphthalen-1-yl]-methyl-amine] the pKi [1] was < 5.00, the pKi [2] was < 5.00 and the pKi [4] was 6.20. It also gave a pKi [3] of 6.42.
For `CC(NC(C)(C)C)C(=O)c1cccc(Cl)c1` (stereo not given) [BUPROPION HYDROCHLORIDE], the pKi [1] was < 5.00, the pKi [2] was < 5.00 and the pKi [4] was < 5.00. The pKi [5] was < 5.00 and the pKi [3] was 5.38.
In the case of `CNCCCN1c2ccccc2CCc2ccccc21` [Desmethylimipramine], the pKi [2] was 5.46.
